Data on 2 compounds can be found in US11156599B2, “Assay for telomere length regulators” (The Johns Hopkins University, priority 2015, dated 2021).

Test [1] concerns ATM kinase-dependent signaling pathway (Kap1-S824 phosphorylation). The test is described as follows: Western blot of phosphorylated Kap1 (ATM substrate). The test is classed as cell-based, mouse. An excerpt: Having established the robust ADDIT assay that can measure telomere elongation over one cell cycle, it was desired to examine whether the ATM kinase activity is required for telomere elongation. Two different methods were used to inhibit ATM: the ATM specific inhibitor KU55933 and siRNA knockdown. To confirm the inhibition of ATM kinase activity, the phosphorylation level of ATM substrate Kap1 as well as ATR kinase substrate Chk1 was examined by western blot. Cultured cells were pretreated with KU55933, siATM or DMSO control and later exposed to a DNA damaging reagent Camptothecin (CPT).
To detect phospho-proteins, 1× lysis buffer made of final concentration of 1× RIPA (Cell Signaling, #98016S), 1× protease inhibitor cocktail, 1× PhosSTOP™ (Roche, #4906845001) was added directly to cells on the dish after washing with cold 1× PBS. Protein concentration was measured with a BCA protein assay kit (Thermo, #23227). Typically 10 μg of protein from each sample was applied to SDS-PAGE gels, 4-15% Mini-PROTEAN TGX™ gels (Biorad, #456-1084), and transferred to nitrocellulose membranes in transfer buffer. […] Band intensities were quantified using the Odyssey™ software (LI-COR) and normalized to Actin levels. […]
(A western blot detects proteins with antibodies after separation by electrophoresis.)

A further test has as its system human HCT116 cells. The test is described as follows: Telomere length in continuously growing HCT116 cells. Type of test: cell-based. Conditions: KU55933.
The next test concerns SL13 cells. The test is described as follows: Telomere Southern blot after telomerase (mTR and mTERT) overexpression. The conditions noted are these: lentivirus expressing mTR and mTERT, 2 or 5 days in culture. The test is classed as cell-based, mouse. As for the experimental part: To examine the role of ATM in telomere elongation by an independent method, telomerase was overexpressed in the cell line, in the presence of ATM inhibition. It has been shown that overexpressing telomerase elongates telomere lengths in human cells. Cells were treated with KU55933 and then transduced with a lentivirus expressing both mTR and mTERT and grown for 2 or 5 days in culture and telomere lengths were assayed by Southern blot. Telomere lengths in cells overexpressing telomerase were rapidly elongated in just 5 days (data not shown). […] In addition, as discussed below, when cells are grown for several days, ATR may also compensate for the loss of ATM. […]
To measure telomere lengths by Southern blot, genomic DNA was extracted from cell pellets collected at different population doublings using the Puregene Core Kit A™ (Qiagen). […] Labeled probe was counted and 10^6 counts/ml (telomere probe) or 10^4 counts/ml (ladder) was denatured at 100° C. for 5 minutes and added to the pre-hybridization solution and hybridized overnight at 65° C. Membranes were washed 3× 15 minutes each in 6× SSC and 1% SDS at 65° C., and 3× 15 minutes each in 1× SSC and 1% SDS at 65° C. and exposed to a phosphorimager screen and detected on a Fuji phosphorimager. […]

In the case of `O=C(c1cc(Cc2n[nH]c(=O)c3ccccc23)ccc1F)N1CCN(C(=O)C2CC2)CC1` [Olaparib], in test [1] (Olaparib treated cells), the “increased level of Kap1 phosphorylation compared to DMSO-treated control cells” value is listed as 5 fold.
Take `O=c1cc(-c2cccc3c2Sc2ccccc2S3)oc(N2CCOCC2)c1` [KU55933]: in the test on human HCT116 cells, the “telomere lengths with increasing cell PDs” value is on record as “shortened significantly”. Further, the Kap1-S824 phosphorylation entry in test [1] (pretreated, later exposed to Camptothecin (CPT), western blot) is listed as “blocked Kap1 phosphorylation”. The “telomere elongation by telomerase overexpression” value in the test on SL13 cells is “significantly blocked the telomere elongation”.
